Laboratory results: patent publication US9572881B2, “Halogenated compounds for photodynamic therapy” (Nanoquantum Sciences, Inc., priority 2012, dated 2017)
“And” between values parts separate entries of the source, which are not always exact repeats. Equal entries are not always repeated.

What was measured:
[1] = Absorption spectra and extinction coefficients of dyes; type: physicochemical
Description: Absorption spectra were measured at RT on a Perking Elmer Lambda 35 UV/Vis spectrophotometer. […] The stock solution was diluted (1:2000) and the absorbance was measured in a 5-cm standard quartz cell. All dye concentrations were in the range of 1.1 to 2.0×10^−7 M. The extinction coefficients were calculated according to Lambert-Beer's law.

[2] = Fluorescence emission spectra and quantum yield relative to HITC; type: physicochemical; details: for QY (fluor): given as fraction in synthesis example
Description: Fluorescence spectra for the dyes were determined at RT on a Varian Cary Eclipse spectrofluorometer in a standard 1-cm quartz cell. The spectra were corrected. All concentrations of the fluorophores were chosen to be between 0.2 and 1.0 μM.
For the determination of the quantum yields (QY), the integrated relative intensities of the dyes or dye-protein conjugates, were measured against HITC as the reference. All absorbances at excitation wavelength (λexc) were in the range of 0.04-0.08 (when measured in a 1-cm cell).
The QY of each sample was independently measured 3-4 times and the average value was calculated.

[3] = Phototoxicity (glow lamp) and dark toxicity by hemolysis of bovine erythrocytes; type: cell-based; details: bovine, bovine erythrocytes, Glow Lamp; for hemolysis at 30 min, 0.5 µM: exposure 30 min
Description: (§1) Bovine erythrocytes were isolated from blood plasma stored with sodium citrate. 1 mL of bovine blood was treated at centrifuge (3,000 rpm) for 10 min to precipitate erythrocytes. The supernatant was decanted, 2 mL of physiological solution were added, treated and erythrocytes were precipitated with centrifuge. The washing procedure was repeated for 3 times and the precipitated erythrocytes were collected. […] Cells were dye-incubated for 45 minutes at 37° C. in the dark. Then the examined suspensions of cells (erythrocytes) were placed at a distance of 30-cm from a 250 W glow red-lamp equipped with a water-based heat filter and irradiated with occasional stirring. After irradiation, cells were stored at 4° C. for 15 hours. […] The hemolysis level (percentage of hemolyzed cells) was determined as the ratio of absorbances of the supernatant and a solution of 100% hemolysed cells. The 100% hemolysis was taken as the value obtained when the given number of erythrocytes were suspended in distilled water.

[4] = system: bovine erythrocytes; test: as above; type: cell-based; details: Dark
Description: as §1

[5] = Singlet oxygen quantum yield, DPBF scavenger method in ethanol; type: physicochemical; details: measured in ethanol, 650 nm laser, ICG reference
[6] = cited from earlier work
[7] = ethanol; reference value from Cardillo et al.; cited from earlier work
[8] = background statement, at ~780 nm; cited from earlier work

Row | Extinction Coefficient ([1]; Methanol) | Extinction Coefficient ([1]; Water) | Emission max. ([2]; Water) | Structure (SMILES) | Absorption max. ([1]; Methanol) | Emission max. ([2]; Methanol) | Fluorescence quantum yield ([2]; Methanol) | Hemolysis ([4]; 5 μM) | Hemolysis ([4]; 10 μM) | Singlet oxygen generation quantum yield ΦΔ [5] | hemolysis at 60 min, 0.1 µM ([3]; exposure 60 min) | hemolysis at 30 min, 0.5 µM [3] | other results
1 |  |  |  | CN1\C(=C/C=C/C=C/C=C/C2=[N+](C)c3ccccc3C2(C)C)C(C)(C)c2ccccc21.[I-] [HITC, 1,1′,3,3,3′,3′-hexamethylindotricarbocyanine, reference compound] | 740 nm | 768 nm | 28% | 2.0% | 6.7% | 5% |  |  | hemolysis at 60 min, 1 µM ([3]; 1 μM, exposure 60 min): 4.4%; hemolysis at 120 min, 1 µM ([3]; 1 μM, exposure 120 min): 5.4%; hemolysis at 60 min, 5 µM ([3]; 5 μM, exposure 60 min): 65%; hemolysis at 120 min, 5 µM ([3]; 5 μM, exposure 120 min): 74%; QY of reference ([6]; in methanol, reference standard): 28%
2 |  |  |  | CN1\C(=C/C=C/C=C/C=C/C2=[N+](C)c3cc(I)c(I)c(I)c3C2(C)C)C(C)(C)c2c1cc(I)c(I)c2I.[I-] [I-76, 4,5,6-triiodo-1,3,3-trimethyl-2-[7-(4,5,6-triiodo-1,3,3-trimethyl-2,3-dihydro-1H-2-indolyliden)-1,3,5-heptatrienyl]-3H-indolium iodide] | 754 nm and 755 nm | 785 nm | 43% | 2% |  | 50% | 43% | 46% | Hemolysis ([4]; 50 μM): 12%
3 | 210,000 M^−1cm^−1 | 100,000 M^−1cm^−1 | 786 nm | CC1(CCCCCC(=O)O)C(/C=C/C=C/C=C/C=C2\N(CCCS(=O)(=O)O)c3cc(I)c(I)c(I)c3C2(C)CCCCCC(=O)O)=[N+](CCCS(=O)(=O)[O-])c2cc(I)c(I)c(I)c21 (stereo not drawn) [I-86, 3-(3-(5-carboxypentyl)-2-7-[3-(5-carboxypentyl)-4,5,6-triiodo-3-methyl-1-(3-sulfopropyl)-2,3-dihydro-1H-2-indolyliden]-1,3,5-heptatrienyl-4,5,6-triiodo-3-methyl-3H-1-indoliumyl)-1-propanesulfonate] | 765 nm | 795 nm | 44% |  | 3% | 13% | 70% | 74% | Absorption max. ([1]; BSA conjugate): 778 nm; Absorption max. ([1]; Water): 721 nm and 760 nm; Extinction coefficient ε at λmax (abs) ([1]; water, synthesis example, no unit): 210,000; Emission max. ([2]; BSA conjugate): 796 nm; Fluorescence quantum yield ([2]; BSA conjugate, subject to D/P): 5-7%; QY (fluor) ([2]; methanol): 0.44; QY (fluor) ([2]; water): 0.006
4 | 200,000 M^−1cm^−1 | 114,000 M^−1cm^−1 | 810 nm | CC1(C)C(/C=C/C=C/C=C/C=C2\N(CCCCS(=O)(=O)[O-])c3ccc4ccccc4c3C2(C)C)=[N+](CCCCS(=O)(=O)[O-])c2ccc3ccccc3c21.[Na+] [ICG, Indocyanine green, reference compound] |  | 818 nm | 16% |  |  | 12% |  |  | quantum yield (reporter) ([6]; in water, background statement): 0.5-1.3%; singlet oxygen quantum yield ΦΔ of reference [7]: 12%; extinction coefficients [8]: 200,000 M^−1 cm^−1
